Assays:
OVA-induced AHR = test: Airway hyper-responsiveness (AHR) to intravenous methacholine; assay type: in vivo, BALB/c mice; conditions: 1 mg/kg; for OVA-induced airway hyperresponsiveness (AHR) to methacholine: OVA-challenged mice
Procedure: Mice were anesthetized and tracheotomy was performed as described above. The internal jugular vein was cannulated and connected to a microsyringe for intravenous methacholine administration. Airway resistance (RI) and dynamic compliance (Cdyn) in response to increasing concentrations of mechacholine were recorded using a whole body plethysmograph chamber (Buxco, Sharon, Conn.) and ventilated mechanically by a ventilator via the tube that was inserted into the trachea at a tidal volume of 200 μl/breadth and a breathing rate of 150/min. Airflow and pressure changes were detected by respective transducers, recorded and analyzed by Biosystem XA software (Buxco, Sharon, Conn., USA). Results are expressed as a percentage of the respective basal values in response to phosphate buffered saline (PBS).

[1] = tested on: NF-κB signaling pathway in normal human bronchial epithelial cells; test: TNF-α-induced NF-κB activation in normal human bronchial epithelial cells (immunoblotting, TransAM p65 ELISA); assay type: cell-based; conditions: 30 μM
Procedure: To determine the effects of andrograhpolide on OVA-specific immune responses in lymphocytes, thoracic lymph node cells were grown in bronchial epithelial bulletkit medium (Cambrex BioScience, Walkersvile, Md., USA), supplemented with bovine pituitary extract (2 ml), hydrocortisone (0.5 ml), recombinant human EGF (0.5 ml), epinephrine (0.5 ml), transferrin (0.5 ml), insulin (0.5 ml), retinoic acid (0.5 ml), triiodothyronine (0.5 ml), gentamycin sulfate (50 μg/ml), and amphotericin B (50 ng/ml). The cells were incubated in 5% CO2 incubator at 37° C., and subcultured at 80% to 85% confluency. Cells were exposed to 200 μg/ml OVA for 72 hours. Concanavalin A (Con A, 10 μug/ml) was used as a positive control. Supernatants from parallel triplicate cultures were analyzed for cytokine levels by ELISA. Normal human bronchial epithelial cells were cultured in optimized bronchial epithelial bulletkit medium with supplements (Lonza, Basel, Switzerland). Cells were pretreated with 30 μM andrographolide or vehicle (0.01% DMSO) 4 hours before stimulation with 10 ng/ml tumor necrosis factor (TNF)-α. Total and nuclear proteins, and mRNA were extracted from cells at specified time intervals.
Lung and cell culture nuclear proteins ([…]) were isolated. Lysates were incubated on ice for 30 min before centrifugation (18,000 g for 5 min). The supernatants were collected, and protein concentrations were determined using a BCA protein assay kit. 28 μl of the protein measured were mixed with 7 μl 5× sample buffer and boiled at 95° C. for 5 min. 10% SDS-PAGE gel was set as known in the art. The gel was placed in a Trans-Blot tank (Bio-Rad Laboratories, Hercules, Calif.). 30 μl of the sample mixtures and Pre-stained SDS Page Marker (Bio-Rad Laboratories, Hercules, Calif.) were loaded into respective wells and ran at 100V for 2 hours. The proteins were then transferred to a PVDF membrane using a semi-dry transblotter (ATTO Corp, Tokyo, Japan). The PVDF membrane was blocked with 5% non-fat milk in Tween-20 Tris buffered saline (TTBS) for 2 hours and probed with various primary antibodies in 1% non-fat milk in TTBS (1:2,000 for anti-rabbit antibodies; 1:5,000 for anti-mouse antibodies; 1:10,000 for β-actin) overnight at 4° C. The PVDF was then washed with TTBS for 10 times (2-3 min each), and incubated in HRP- or AP-conjugated anti-mouse or anti-rabbit antibodies for 1 hour. The membrane was again washed with TTBS. For HRP-conjugated antibody, 1 ml each of HRP substrate 1 and substrate 2 were added onto the membrane. For AP-conjugated antibody, 7.5 ml of AP substrates (300 μl AP 25×Buffer, 75 μl Reagent A, 75 μl Reagent B, 7.5 ml water) was added per gel. The data was then developed in the dark on hyperfilms using an ECL reagent. Immunoblots were probed with anti-p65, anti-phospho-p65 (Ser536), and anti-TATA binding protein (TBP, Abcam, Cambridge, UK).
Nuclear proteins were also analyzed for NF-κB DNA-binding activity using the TransAM p65 transcription factor assay kit (Active Motif, Carlsbad, Calif.).

[2] = 10 ng/ml TNF-α for 5, 15 and 30 minutes
[3] = OVA-challenged, mechanically ventilated mice

Compound | OVA-induced airway hyperresponsiveness (AHR) to methacholine (OVA-induced AHR) | TNF-α-induced IκBα degradation [1, 2] | TNF-α-induced p65 subunit of NF-κB phosphorylation [1, 2] | TNF-α-induced phosphorylation of IKKβ [1, 2] | IκB phosphorylation ([1]; 10 ng/ml TNF-α) | TNF-α-induced p65 DNA-binding activity ([1]; TNF-α for 30 minutes) | TNF-α-induced p65 nuclear translocation ([1]; TNF-α for 30 minutes) | dynamic compliance (Cdyn) in response to methacholine (OVA-induced AHR; [3]) | lung resistance (RI) in response to methacholine (OVA-induced AHR; [3]) | TNF-α-induced p65 DNA-binding ([1]; 10 ng/ml TNF-α for 5 minutes) | TNF-α-induced p65 nuclear translocation ([1]; 10 ng/ml TNF-α for 5 minutes)
C=C1CC[C@@H]2[C@](C)(CO)[C@H](O)CC[C@@]2(C)[C@@H]1C/C=C1/C(=O)OC[C@H]1O [Andrographolide] | blocked | blocked | blocked | blocked | inhibition | blocked | blocked | – | – | – | –
C=C1CCC2C(C)(CO)C(O)CCC2(C)C1C=CC1=CCOC1=O (stereo not drawn) [DDAG, 14-Deoxy-11,12-didehydroandrographolide] | significantly inhibited | – | – | – | – | – | – | restored | dramatically reduced | markedly abated | markedly abated

Source: patent publication US20120015923A1, “USE OF ANDROGRAPHOLIDE COMPOUNDS FOR TREATING INFLAMMATION AND AIRWAY DISORDERS” (NATIONAL UNIVERSITY OF SINGAPORE, priority 2009, published 2012)
